{"source": "patent US8580971B2", "about": "“Alkyl-analide producing method” (Bayer CropScience AG, priority 2005, dated 2013)", "key": {"[1]": {"system": "Botrytis cinerea", "test": "Botrytis test (bean)/protective", "format": "in vivo", "details": "protective spray, application rate 100 ppm, lesion size evaluated 2 days after inoculation", "method": "[table] To prepare an expedient active compound preparation, 1 part by weight of active compound is mixed with the stated amounts of solvent and emulsifier, and the concentrate is diluted to the desired concentration with water. To test for protective activity, young plants are sprayed with the active compound preparation at the application rate stated. After the spray coating has dried on, 2 small agar blocks which sustain the growth of Botrytis cinerea are placed on each leaf. The inoculated plants are placed in a darkened chamber at approximately 20° C. and 100% relative atmospheric humidity. 2 days after the inoculation, the size of the lesions on the leaves is evaluated. 0% means an efficacy which corresponds to that of the control, while an efficacy of 100% means that no disease is observed."}, "[2]": {"test": "logP determination by HPLC on reversed-phase column (C18), EEC Directive 79/831 Annex V.A8", "format": "physicochemical", "details": "pH 2.3, HPLC reversed-phase C18, 43° C., 0.1% aqueous phosphoric acid/acetonitrile", "method": "The logP values stated in the above tables and preparation examples are determined as described in EEC Directive 79/831 Annex V.A8 by means of HPLC (high performance liquid chromatography) on a reversed-phase column (C18). Temperature: 43° C. The determination is effected in the acidic range at pH 2.3 using 0.1% aqueous phosphoric acid and acetonitrile as eluents; linear gradient from 10% acetonitrile to 90% acetonitrile. The calibration is effected with unbranched alkan-2-ones (having 3 to 16 carbon atoms) whose logP values are known (determination of the logP values with reference to the retention times by linear interpolation between two successive alkanones)."}, "[3]": {"system": "Pyrenophora teres", "test": "Pyrenophora teres test (barley)/protective", "format": "in vivo", "details": "protective spray, application rate 1000 ppm, evaluated 8 days after inoculation", "method": "Pyrenophora teres Test (Barley)/Protective To prepare an expedient active compound preparation, 1 part by weight of active compound is mixed with the stated amounts of solvent and emulsifier, and the concentrate is diluted to the desired concentration with water. To test for protective activity, young plants are sprayed with the active compound preparation at the application rate stated. After the spray coating has dried on, the plants are sprayed with a conidial suspension of Pyrenophora teres. The plants remain in an incubation cabinet for 48 hours at 20° C. and 100% relative atmospheric humidity. The plants are then placed into a greenhouse at a temperature of approximately 20° C. and a relative atmospheric humidity of approximately 80%. The test is evaluated 8 days after the inoculation. 0% means an efficacy which corresponds to that of the control, while an efficacy of 100% means that no disease is observed."}, "[4]": {"system": "Erysiphe graminis fsp. hordei", "test": "Erysiphe test (barley)/protective", "format": "in vivo", "details": "protective spray, application rate 1000 ppm, evaluated 7 days after inoculation", "method": "Erysiphe Test (Barley)/Protective To prepare an expedient active compound preparation, 1 part by weight of active compound is mixed with the stated amounts of solvent and emulsifier, and the concentrate is diluted to the desired concentration with water. To test for protective activity, young plants are sprayed with the active compound preparation at the application rate stated. After the spray coating has dried on, the plants are dusted with spores of Erysiphe graminis fsp. hordei. The plants are placed in a greenhouse at a temperature of approximately 20° C. and a relative atmospheric humidity of approximately 80% to favour the development of mildew pustules. The test is evaluated 7 days after the inoculation. 0% means an efficacy which corresponds to that of the control, while an efficacy of 100% means that no disease is observed."}, "[5]": {"system": "Leptosphaeria nodorum", "test": "Leptosphaeria nodorum test (wheat)/protective", "format": "in vivo", "details": "protective spray, application rate 1000 ppm, evaluated 10 days after inoculation", "method": "Leptosphaeria nodorum Test (Wheat)/Protective To prepare an expedient active compound preparation, 1 part by weight of active compound is mixed with the stated amounts of solvent and emulsifier, and the concentrate is diluted to the desired concentration with water. To test for protective activity, young plants are sprayed with the active compound preparation at the application rate stated. After the spray coating has dried on, the plants are sprayed with a spore suspension of Leptosphaeria nodorum. The plants remain in an incubation cabinet for 48 hours at 20° C. and 100% relative atmospheric humidity. The plants are then placed into a greenhouse at a temperature of approximately 15° C. and a relative atmospheric humidity of approximately 80%. The test is evaluated 10 days after the inoculation. 0% means an efficacy which corresponds to that of the control, while an efficacy of 100% means that no disease is observed."}}, "data": [{"smiles": "Cn1cc(C(=O)Nc2ccc(F)cc2-c2ccc(F)c(Cl)c2)c(C(F)F)n1", "values": [{"measurement": "Efficacy in %", "setting": "[1]", "result": 87, "unit": "%"}]}, {"smiles": "Cn1cc(C(=O)Nc2ccc(F)cc2-c2ccc(Cl)c(F)c2)c(C(F)F)n1", "note": "[Example 1, N-(4′-chloro-3′,5-difluorobiphenyl-2-yl)-3-(difluoromethyl)-1-methyl-1H-pyrazole-4-carboxamide]", "values": [{"measurement": "chromatographic logP", "setting": "[2]", "result": 3.05}]}, {"smiles": "Cc1ccc(-c2cc(F)ccc2N)cc1F", "note": "[Example (III-2), 5,3′-difluoro-4′-methylbiphenyl-2-ylamine]", "values": [{"measurement": "chromatographic logP", "setting": "[2]", "result": 2.94}]}, {"smiles": "Cn1cc(C(=O)Nc2ccc(F)cc2-c2ccc(Cl)c(F)c2)c(C(F)(F)F)n1", "note": "[N-(4′-chloro-5,3′-difluorobiphenyl-2-yl)-1-methyl-3-trifluoromethyl-1H-pyrazole-4-carboxamide]", "values": [{"measurement": "chromatographic logP", "setting": "[2]", "result": 3.26}]}, {"smiles": "Cc1ccc(-c2cc(F)ccc2NC(=O)c2cn(C)nc2C(F)(F)F)cc1F", "note": "[N-(5,3′-difluoro-4′-methylbiphenyl-2-yl)-1-methyl-3-trifluoromethyl-1H-pyrazole-4-carboxamide]", "values": [{"measurement": "chromatographic logP", "setting": "[2]", "result": 3.27}]}, {"smiles": "Cc1ccc(-c2cc(F)ccc2NC(=O)c2cn(C)nc2C(F)F)cc1F", "note": "[N-(5,3′-difluoro-4′-methylbiphenyl-2-yl)-3-difluoromethyl-1-methyl-1H-pyrazole-4-carboxamide]", "values": [{"measurement": "chromatographic logP", "setting": "[2]", "result": 3.05}]}, {"smiles": "Cn1cc(C(=O)Nc2cc(F)ccc2-c2ccc(F)c(Cl)c2)c(C(F)F)n1", "note": "[drawing 15, reference compound]", "values": [{"measurement": "Efficacy in %", "setting": "[1]", "result": 52, "unit": "%"}]}, {"smiles": "Cn1cc(C(=O)Nc2ccc(F)cc2-c2ccc(Cl)c(F)c2)c(C(F)F)n1", "note": "[drawing 17]", "values": [{"measurement": "Efficacy in %", "setting": "[1]", "result": 100, "unit": "%"}]}, {"smiles": "Cn1cc(C(=O)Nc2cc(F)ccc2-c2ccc(F)c(Cl)c2)c(C(F)F)n1", "note": "[drawing 18, reference compound]", "values": [{"measurement": "Efficacy in %", "setting": "[3]", "result": 93, "unit": "%"}]}, {"smiles": "Cn1cc(C(=O)Nc2ccc(F)cc2-c2ccc(Cl)c(F)c2)c(C(F)F)n1", "note": "[drawing 19]", "values": [{"measurement": "Efficacy in %", "setting": "[3]", "result": 100, "unit": "%"}]}, {"smiles": "Cn1cc(C(=O)Nc2cc(F)ccc2-c2ccc(F)c(Cl)c2)c(C(F)F)n1", "note": "[drawing 20, reference compound]", "values": [{"measurement": "Efficacy in %", "setting": "[4]", "result": 33, "unit": "%"}]}, {"smiles": "Cn1cc(C(=O)Nc2ccc(F)cc2-c2ccc(Cl)c(F)c2)c(C(F)F)n1", "note": "[drawing 21]", "values": [{"measurement": "Efficacy in %", "setting": "[4]", "result": 78, "unit": "%"}]}, {"smiles": "Cn1cc(C(=O)Nc2cc(F)ccc2-c2ccc(F)c(Cl)c2)c(C(F)F)n1", "note": "[drawing 22, reference compound]", "values": [{"measurement": "Efficacy in %", "setting": "[5]", "result": 0, "unit": "%"}]}, {"smiles": "Cn1cc(C(=O)Nc2ccc(F)cc2-c2ccc(Cl)c(F)c2)c(C(F)F)n1", "note": "[drawing 23]", "values": [{"measurement": "Efficacy in %", "setting": "[5]", "result": 84, "unit": "%"}]}]}
